Measurements from patent publication US20060069132A1, “Azolecarboxamide herbicides” (priority 2004, published 2006).

Columns and labels:
giant foxtail [1] = test: Test B pre-/postemergence herbicide test; type: in vivo, Setaria faberi; settings: for Plant response rating, Foxtail, Giant: preemergence; for Foxtail, Giant plant response rating: postemergence, visual rating, scale 0 (no effect) to 100 (complete control)
In short: (§1)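 Greenhouse pot assay with simultaneous preemergence (treated seed) and postemergence (2–18 cm seedlings) applications of surfactant-containing, non-phytotoxic solvent formulations. Response scored visually 13–15 days later on a 0–100 scale, 100 meaning complete control.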

pigweed = test: Test B pre-/postemergence herbicide test; type: in vivo, Amaranthus retroflexus; settings: for Plant response rating, Pigweed: preemergence; for Pigweed plant response rating: postemergence, visual rating, scale 0 (no effect) to 100 (complete control)
In short: as §1

corn = test: Test B pre-/postemergence herbicide test; type: in vivo, Zea mays; settings: for Plant response rating, Corn: preemergence; for Corn plant response rating: postemergence, visual rating, scale 0 (no effect) to 100 (complete control)
In short: as §1

wild oat = test: Test B postemergence herbicide test; type: in vivo, Avena fatua; settings: postemergence, visual rating, scale 0 (no effect) to 100 (complete control)
In short: (§2)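 Each value is a visual 0–100 response rating taken against controls 13 to 15 days after treatment in the greenhouse. Plants received formulated chemical postemergence at the 1- to 4-leaf stage or, in flooded paddy, at the 2-leaf stage.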

cocklebur = test: Test B pre-/postemergence herbicide test; type: in vivo, Xanthium strumarium; settings: for Plant response rating, Cocklebur: preemergence; for Cocklebur plant response rating: postemergence, visual rating, scale 0 (no effect) to 100 (complete control)
In short: as §1

redroot pigweed = test: Test A pre-/postemergence herbicide test; type: in vivo, Amaranthus retroflexus
In short: (§3)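 Greenhouse injury scoring (0–100, complete control = 100) at approximately ten days follows simultaneous pre- and postemergence application. Soil received a directed spray after seeding; seedlings of 2–10 cm at the one- to two-leaf stage were sprayed to runoff.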

morningglory [2] = test: Test B pre-/postemergence herbicide test; type: in vivo, Ipomoea coccinea; settings: for Plant response rating, Morningglory: preemergence; for Morningglory plant response rating: postemergence, visual rating, scale 0 (no effect) to 100 (complete control)
In short: as §1

morningglory [3] = test: Test A pre-/postemergence herbicide test; type: in vivo, Ipomoea spp.
In short: as §3

barnyardgrass [4] = test: Test A pre-/postemergence herbicide test; type: in vivo, Echinochloa crus-galli
In short: as §3

blackgrass = test: Test B postemergence herbicide test; type: in vivo, Alopecurus myosuroides; settings: postemergence, visual rating, scale 0 (no effect) to 100 (complete control)
In short: (§4)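 Greenhouse test; postemergence application to plants at 1–4 leaves (2–18 cm); paddy species at 2 leaves; evaluated visually vs controls at 13–15 days; scale 0–100 (100 = complete control).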

rice [5] = test: Test B flooded paddy test; type: in vivo, Oryza sativa; settings: 1000 g ai/ha, visual rating, scale 0 to 100 (0 no effect, 100 complete control), 13 to 15 days
In short: as §4

Surinam grass = test: Test B pre-/postemergence herbicide test; type: in vivo, Urochloa decumbens; settings: for Plant response rating, Surinam Grass: preemergence; for Surinam Grass plant response rating: postemergence, visual rating, scale 0 (no effect) to 100 (complete control)
In short: as §1

rice [6] = test: Test B pre-/postemergence herbicide test; type: in vivo, Oryza sativa; settings: preemergence
In short: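 Species tested were Echinochloa crus-galli, Ipomoea coccinea, Xanthium strumarium and Oryza sativa, treated both before emergence and at the 1- to 4-leaf stage; rice and barnyardgrass were also tested under flooding at 2 leaves. Greenhouse incubation lasted 13–15 days before visual 0–100 scoring.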

barnyardgrass [7] = test: Test B pre-/postemergence herbicide test; type: in vivo, Echinochloa crus-galli; settings: for Plant response rating, Barnyardgrass: preemergence; for Barnyardgrass plant response rating: postemergence, visual rating, scale 0 (no effect) to 100 (complete control)
In short: as §1

velvetleaf [8] = test: Test B pre-/postemergence herbicide test; type: in vivo, Abutilon theophrasti; settings: for Plant response rating, Velvetleaf: preemergence; for Velvetleaf plant response rating: postemergence, visual rating, scale 0 (no effect) to 100 (complete control)
In short: as §1

giant foxtail [9] = test: Test A pre-/postemergence herbicide test; type: in vivo, Setaria faberi
In short: as §3

wheat = test: Test B postemergence herbicide test; type: in vivo, Triticum aestivum; set-up: key to Wheat plant response rating: 0 = no effect, 100 = complete control; settings: postemergence, 500 g ai/ha; visual rating, scale 0 (no effect) to 100 (complete control)
In short: as §2

lambsquarters = test: Test B pre-/postemergence herbicide test; type: in vivo, Chenopodium album; settings: for Plant response rating, Lambsquarters: preemergence; for Lambsquarters plant response rating: postemergence, visual rating, scale 0 (no effect) to 100 (complete control)
In short: as §1

barnyardgrass [10] = test: Test B flooded paddy test; type: in vivo, Echinochloa crus-galli; settings: 1000 g ai/ha, visual rating, scale 0 to 100 (0 no effect, 100 complete control), 13 to 15 days
In short: as §4

[11] = tested on: small flower umbrella sedge; test: Test B flooded paddy test; type: in vivo, Cyperus difformis; settings: 1000 g ai/ha, visual rating, scale 0 to 100 (0 no effect, 100 complete control), 13 to 15 days
In short: as §4

large crabgrass [12] = test: Test B pre-/postemergence herbicide test; type: in vivo, Digitaria sanguinalis; settings: for Plant response rating, Crabgrass, Large: preemergence; for Crabgrass, Large plant response rating: postemergence, visual rating, scale 0 (no effect) to 100 (complete control)
In short: as §1

large crabgrass [13] = test: Test A pre-/postemergence herbicide test; type: in vivo, Digitaria sanguinalis
In short: as §3

ducksalad = test: Test B flooded paddy test; type: in vivo, Heteranthera limosa; settings: 1000 g ai/ha, visual rating, scale 0 to 100 (0 no effect, 100 complete control), 13 to 15 days
In short: as §4

velvetleaf [14] = test: Test A pre-/postemergence herbicide test; type: in vivo, Abutilon theophrasti
In short: as §3

[15] = 500 g ai/ha, visual rating 0-100, 0 no effect, 100 complete control
[16] = 125 g ai/ha, 0 to 100 scale, 0 is no effect, 100 is complete control
[17] = Postemergence, 500 g ai/ha, 0 to 100 scale, 0 no effect, 100 complete control
[18] = Postemergence, 2000 g ai/ha, 0 to 100 scale, 0 no effect, 100 complete control
[19] = Preemergence, 2000 g ai/ha, visual rating, 0 to 100 scale (0 no effect, 100 complete control)
[20] = preemergence, 500 g ai/ha, visual injury, 0 to 100 scale (0 no effect, 100 complete control)
[21] = Preemergence, 500 g ai/ha, visual rating, 0 to 100 scale (0 no effect, 100 complete control)

CCNC(=O)c1cc(C)cc(NC(=O)c2cc(C(C)(C)C)nn2CC)n1 [Compound 150]
Plant response rating, Foxtail, Giant (giant foxtail [1]; [15]): 60
Foxtail, Giant plant response rating (giant foxtail [1]; 125 g ai/ha): 0
Foxtail, Giant plant response rating (giant foxtail [1]; 500 g ai/ha): 10
Plant response rating, Foxtail, Giant (giant foxtail [1]; [16]): 0
Plant response rating, Pigweed (pigweed; [15]): 100
Pigweed plant response rating (pigweed; 125 g ai/ha): 70
Pigweed plant response rating (pigweed; 500 g ai/ha): 90
Plant response rating, Pigweed (pigweed; [16]): 70
Plant response rating, Corn (corn; [15]): 20
Corn plant response rating (corn; 125 g ai/ha): 10
Corn plant response rating (corn; 500 g ai/ha): 50
Plant response rating, Corn (corn; [16]): 0
Oat, Wild plant response rating (wild oat; 125 g ai/ha): 20
Oat, Wild plant response rating (wild oat; 500 g ai/ha): 20
Plant response rating, Cocklebur (cocklebur; [15]): 0
Cocklebur plant response rating (cocklebur; 125 g ai/ha): 60
Cocklebur plant response rating (cocklebur; 500 g ai/ha): 80
Plant response rating, Cocklebur (cocklebur; [16]): 0
Pigweed plant response rating (redroot pigweed; [17]): 80
Plant response rating, Pigweed (redroot pigweed; [18]): 75
Pigweed plant response rating (redroot pigweed; [19]): 100
Pigweed plant response rating (redroot pigweed; [20]): 75
Plant response rating, Morningglory (morningglory [2]; [15]): 20
Morningglory plant response rating (morningglory [2]; 125 g ai/ha): 20
Morningglory plant response rating (morningglory [2]; 500 g ai/ha): 40
Plant response rating, Morningglory (morningglory [2]; [16]): 0
Morningglory plant response rating (morningglory [3]; [17]): 0
Plant response rating, Morningglory (morningglory [3]; [18]): 10
Morningglory plant response rating (morningglory [3]; [21]): 10
Morningglory plant response rating (morningglory [3]; [19]): 35
Barnyardgrass plant response rating (barnyardgrass [4]; [17]): 30
Plant response rating, Barnyardgrass (barnyardgrass [4]; [18]): 65
Barnyardgrass plant response rating (barnyardgrass [4]; [21]): 50
Barnyardgrass plant response rating (barnyardgrass [4]; [19]): 80
Blackgrass plant response rating (blackgrass; 125 g ai/ha): 0
Blackgrass plant response rating (blackgrass; 500 g ai/ha): 10
Rice plant response rating (rice [5]): 40
Plant response rating, Surinam Grass (Surinam grass; [15]): 10
Surinam Grass plant response rating (Surinam grass; 125 g ai/ha): 10
Surinam Grass plant response rating (Surinam grass; 500 g ai/ha): 40
Plant response rating, Surinam Grass (Surinam grass; [16]): 10
Plant response rating, Rice (rice [6]; [15]): 40
Plant response rating, Rice (rice [6]; [16]): 0
Plant response rating, Barnyardgrass (barnyardgrass [7]; [15]): 80
Barnyardgrass plant response rating (barnyardgrass [7]; 125 g ai/ha): 10
Barnyardgrass plant response rating (barnyardgrass [7]; 500 g ai/ha): 50
Plant response rating, Barnyardgrass (barnyardgrass [7]; [16]): 30
Plant response rating, Velvetleaf (velvetleaf [8]; [15]): 10
Velvetleaf plant response rating (velvetleaf [8]; 125 g ai/ha): 20
Velvetleaf plant response rating (velvetleaf [8]; 500 g ai/ha): 60
Plant response rating, Velvetleaf (velvetleaf [8]; [16]): 0
Foxtail, Giant plant response rating (giant foxtail [9]; [17]): 20
Plant response rating, Foxtail, Giant (giant foxtail [9]; [18]): 25
Foxtail, Giant plant response rating (giant foxtail [9]; [21]): 15
Foxtail, Giant plant response rating (giant foxtail [9]; [19]): 55
Wheat plant response rating (wheat): 10
Plant response rating, Lambsquarters (lambsquarters; [15]): 100
Lambsquarters plant response rating (lambsquarters; 125 g ai/ha): 50
Lambsquarters plant response rating (lambsquarters; 500 g ai/ha): 70
Plant response rating, Lambsquarters (lambsquarters; [16]): 0
Barnyardgrass plant response rating (barnyardgrass [10]): 70
Sedge, Umbrella plant response rating [11]: 50
Plant response rating, Crabgrass, Large (large crabgrass [12]; [15]): 10
Crabgrass, Large plant response rating (large crabgrass [12]; 125 g ai/ha): 10
Crabgrass, Large plant response rating (large crabgrass [12]; 500 g ai/ha): 10
Plant response rating, Crabgrass, Large (large crabgrass [12]; [16]): 0
Crabgrass, Large plant response rating (large crabgrass [13]; [17]): 15
Plant response rating, Crabgrass, Large (large crabgrass [13]; [18]): 50
Crabgrass, Large plant response rating (large crabgrass [13]; [21]): 25
Crabgrass, Large plant response rating (large crabgrass [13]; [19]): 50
Ducksalad plant response rating (ducksalad): 20
Velvetleaf plant response rating (velvetleaf [14]; [17]): 25
Plant response rating, Velvetleaf (velvetleaf [14]; [18]): 15
Velvetleaf plant response rating (velvetleaf [14]; [19]): 50
Velvetleaf plant response rating (velvetleaf [14]; [20]): 20
